pIC50: −log10 of the molar value.
Columns and labels:
[1] = biological target: T1, Endothelin-1 receptor (Homo sapiens, UniProt P25101); assay: Tested for binding affinity towards human Endothelin A receptor
T1 sequence (P25101 whole entry): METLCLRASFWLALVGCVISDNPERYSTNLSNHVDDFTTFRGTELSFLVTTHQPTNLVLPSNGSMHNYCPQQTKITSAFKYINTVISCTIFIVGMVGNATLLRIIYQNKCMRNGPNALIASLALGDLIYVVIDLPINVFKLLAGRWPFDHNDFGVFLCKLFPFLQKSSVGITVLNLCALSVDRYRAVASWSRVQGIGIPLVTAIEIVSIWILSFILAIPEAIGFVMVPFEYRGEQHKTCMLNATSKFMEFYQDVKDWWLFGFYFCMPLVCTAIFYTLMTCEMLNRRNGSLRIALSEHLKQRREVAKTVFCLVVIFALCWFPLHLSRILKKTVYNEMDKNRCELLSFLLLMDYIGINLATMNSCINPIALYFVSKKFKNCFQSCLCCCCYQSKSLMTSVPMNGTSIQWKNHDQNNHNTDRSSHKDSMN

[2] = biological target: T2, Endothelin receptor type B (Homo sapiens, UniProt P24530); assay: Tested for binding affinity towards human Endothelin B receptor
T2 sequence (P24530 whole entry): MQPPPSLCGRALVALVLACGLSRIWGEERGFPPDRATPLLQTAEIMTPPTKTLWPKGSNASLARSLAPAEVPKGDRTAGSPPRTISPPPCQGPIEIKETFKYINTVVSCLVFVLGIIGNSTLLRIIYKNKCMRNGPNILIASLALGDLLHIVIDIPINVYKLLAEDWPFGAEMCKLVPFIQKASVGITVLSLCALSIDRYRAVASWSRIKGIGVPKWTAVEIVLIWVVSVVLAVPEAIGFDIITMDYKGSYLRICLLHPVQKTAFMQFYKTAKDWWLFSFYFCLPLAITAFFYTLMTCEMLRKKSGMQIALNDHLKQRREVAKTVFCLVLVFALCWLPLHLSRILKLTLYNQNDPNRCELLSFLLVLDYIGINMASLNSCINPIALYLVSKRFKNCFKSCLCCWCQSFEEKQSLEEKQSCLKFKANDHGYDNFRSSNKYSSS

SMILES	pIC50 [1]	pIC50 [2]
C/C=C/C=C/C(=O)O[C@@H]1C=C2COC(=O)[C@]2(O)CC1	5.59	< 4.60
C/C=C/C=C/C(=O)O[C@@H]1C=C2COC(O)[C@]2(O)CC1 (stereo partly drawn)	–	< 4.60

The next lines start with results.

pIC50 [1]	SMILES	pIC50 [2]
4.21	C/C=C/C=C/C=C/C(=O)O[C@@H]1C=C2COC(O)[C@]2(O)[C@@]2(C)CCCC(C)(C)C12 (stereo partly drawn)	–
5.09	C/C=C/C=C/C(=O)O[C@@H]1C=C2COC(OC)[C@]2(O)CC1 (stereo partly drawn)	< 4.60
< 3.60	C/C=C/C=C/C(=O)O[C@@H]1C=C2COC(O)[C@]2(O)[C@@]2(C)CCCC(C)(C)C12 (stereo partly drawn)	3.83

From ChEMBL document CHEMBL1133352, “Synthesis and endothelin receptor binding activity of synthetic analogues of RES-1149-2” (Bioorg Med Chem Lett, 2000)
